Laboratory results published in the supplement of paper PMC11451515.

What was measured:
Settings in all cases: 48 h
SEM cells [1] = experiment: cell viability relative to DMSO control; higher = less cytotoxic
How it was run: (§1)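 Viability values are per-plate percentages of DMSO wells, with background from cell-free wells. Library compounds in DMSO were pin-dosed, in an 11-point threefold series from 47 μM to 0.79 nM, onto NOMO1 or SEM (500 cells/well) or P12-Ichikawa (1000 cells/well) leukemia cells in 1536-well plates (5 μl). Those cells had been adapted for at least four passages in each medium, and CellTiter-Glo One luminescence was read after 48 h at 37°C.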

P12-Ichikawa [2] = experiment: as above
How it was run: as §1

NOMO1 [3] = experiment: as above
How it was run: as §1

SEM cells [4] = experiment: AUC of viability dose-response curve (% viability x log10 dose units); higher = less sensitive
How it was run: (§2)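 Over 48 h at 37°C, leukemia cells in 1536-well plates (500 or 1000 cells/well), adapted to each medium, received library compounds in DMSO at 11 threefold doses from 47 μM to 0.79 nM. CellTiter-Glo One luminescence, normalised per plate to DMSO and cell-free wells, was fitted by a four-parameter log-logistic function of log10 dose. The area under the curve was then integrated by trapezoidal rule, after scaling curves above full viability and removing those that failed quality control.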

P12-Ichikawa [5] = experiment: as above
How it was run: as §2

NOMO1 [6] = experiment: as above
How it was run: as §2

CCC(=O)N1CCN(CC1)C2=C(C=C(C=C2)N3C(=O)\C=C/C4=C3C5=CC(=CC=C5N=C4)C6=CN=C7C=CC=CC7=C6)C(F)(F)F
cell viability [%]
Settings | NOMO1 [3] | P12-Ichikawa [2] | SEM cells [1]
HPLM + 10% dialyzed FBS, 0.000781 µM | 93.9 | 89 | 77.6
HPLM + 10% dialyzed FBS, 0.00234 µM | 94.4 | 102 | 88.7
HPLM + 10% dialyzed FBS, 0.00702 µM | 89.2 | 99.2 | 85.9
HPLM + 10% dialyzed FBS, 0.0211 µM | 90.8 | 97.1 | 73.8
HPLM + 10% dialyzed FBS, 0.0632 µM | 83.2 | 82.9 | 57.8
HPLM + 10% dialyzed FBS, 0.19 µM | 75 | 85.3 | 67.8
HPLM + 10% dialyzed FBS, 0.569 µM | 61.4 | 81.8 | 46.9
HPLM + 10% dialyzed FBS, 1.71 µM | 71.8 | 77.3 | 48.7
HPLM + 10% dialyzed FBS, 5.12 µM | 72.7 | 73.8 | 47.5
HPLM + 10% dialyzed FBS, 15.4 µM | 69.2 | 70.9 | 34.4
HPLM + 10% dialyzed FBS, 46.1 µM | 67 | 77 | 29
RPMI 5 mM glucose + 10% FBS, 0.000781 µM | 98 | 84.7 | 97
RPMI 5 mM glucose + 10% FBS, 0.00234 µM | 96.7 | 90.8 | 102
RPMI 5 mM glucose + 10% FBS, 0.00702 µM | 96.9 | 84 | 90.1
RPMI 5 mM glucose + 10% FBS, 0.0211 µM | 104 | 75.5 | 80.6
RPMI 5 mM glucose + 10% FBS, 0.0632 µM | 90.4 | 68 | 56.7
RPMI 5 mM glucose + 10% FBS, 0.19 µM | 79 | 65.3 | 59.7
RPMI 5 mM glucose + 10% FBS, 0.569 µM | 72.7 | 62.9 | 48
RPMI 5 mM glucose + 10% FBS, 1.71 µM | 68.2 | 61.3 | 45
RPMI 5 mM glucose + 10% FBS, 5.12 µM | 62.3 | 59.6 | 45
RPMI 5 mM glucose + 10% FBS, 15.4 µM | 64 | 56.5 | 47.9
RPMI 5 mM glucose + 10% FBS, 46.1 µM | 63.7 | 49.8 | 30.9
RPMI 5 mM glucose + 10% dialyzed FBS, 0.000781 µM | 77.6 | 86.4 | 83.4
RPMI 5 mM glucose + 10% dialyzed FBS, 0.00234 µM | 100 | 98.3 | 92.6
RPMI 5 mM glucose + 10% dialyzed FBS, 0.00702 µM | 86.3 | 97.6 | 91.5
RPMI 5 mM glucose + 10% dialyzed FBS, 0.0211 µM | 86.5 | 80.5 | 84.1
RPMI 5 mM glucose + 10% dialyzed FBS, 0.0632 µM | 82.5 | 77.2 | 61.2
RPMI 5 mM glucose + 10% dialyzed FBS, 0.19 µM | 77.6 | 71.2 | 62.7
RPMI 5 mM glucose + 10% dialyzed FBS, 0.569 µM | 68.3 | 68.4 | 46
RPMI 5 mM glucose + 10% dialyzed FBS, 1.71 µM | 60.8 | 57.7 | 54.7
RPMI 5 mM glucose + 10% dialyzed FBS, 5.12 µM | 57.6 | 60.8 | 42.5
RPMI 5 mM glucose + 10% dialyzed FBS, 15.4 µM | 57.4 | 48.3 | 42.8
RPMI 5 mM glucose + 10% dialyzed FBS, 46.1 µM | 54.7 | 54.4 | 33.1

AUC of viability dose-response curve
Settings | NOMO1 [6] | P12-Ichikawa [5] | SEM cells [4]
HPLM + 10% dialyzed FBS | 376 | 406 | 286
RPMI 5 mM glucose + 10% FBS | 388 | 328 | 297
RPMI 5 mM glucose + 10% dialyzed FBS | 352 | 347 | 300

CC(O)(C[S+](=O)([O-])c1ccc(F)cc1)C(=O)Nc1ccc(C#N)c(C(F)(F)F)c1 (stereo unspecified)
cell viability [%]
Settings | NOMO1 [3] | P12-Ichikawa [2] | SEM cells [1]
HPLM + 10% dialyzed FBS, 0.000781 µM | 84.9 | 94.8 | 86.8
HPLM + 10% dialyzed FBS, 0.00234 µM | 85.7 | 85.9 | 96.4
HPLM + 10% dialyzed FBS, 0.00702 µM | 98.6 | 97.2 | 91
HPLM + 10% dialyzed FBS, 0.0211 µM | 92.6 | 96.8 | 80.3
HPLM + 10% dialyzed FBS, 0.0632 µM | 96.8 | 93.7 | 85.2
HPLM + 10% dialyzed FBS, 0.19 µM | 97 | 100 | 96.2
HPLM + 10% dialyzed FBS, 0.569 µM | 112 | 102 | 96.2
HPLM + 10% dialyzed FBS, 1.71 µM | 94.2 | 101 | 93.5
HPLM + 10% dialyzed FBS, 5.12 µM | 94.8 | 95.6 | 97.4
HPLM + 10% dialyzed FBS, 15.4 µM | 87.5 | 102 | 83.2
HPLM + 10% dialyzed FBS, 46.1 µM | 48 | 69.9 | 73.9
RPMI 5 mM glucose + 10% FBS, 0.000781 µM | 86.5 | 84.6 | 84.9
RPMI 5 mM glucose + 10% FBS, 0.00234 µM | 93.4 | 92.9 | 83.6
RPMI 5 mM glucose + 10% FBS, 0.00702 µM | 96.5 | 92.3 | 98
RPMI 5 mM glucose + 10% FBS, 0.0211 µM | 93.3 | 93.9 | 87
RPMI 5 mM glucose + 10% FBS, 0.0632 µM | 85.5 | 94.5 | 88.7
RPMI 5 mM glucose + 10% FBS, 0.19 µM | 85.8 | 91.1 | 103
RPMI 5 mM glucose + 10% FBS, 0.569 µM | 91.6 | 93.2 | 96.3
RPMI 5 mM glucose + 10% FBS, 1.71 µM | 93.3 | 98.9 | 96.5
RPMI 5 mM glucose + 10% FBS, 5.12 µM | 92.3 | 90.3 | 91.8
RPMI 5 mM glucose + 10% FBS, 15.4 µM | 86.1 | 88.9 | 76.8
RPMI 5 mM glucose + 10% FBS, 46.1 µM | 50.7 | 52.7 | 62.9
RPMI 5 mM glucose + 10% dialyzed FBS, 0.000781 µM | 75.9 | 78.3 | 87.2
RPMI 5 mM glucose + 10% dialyzed FBS, 0.00234 µM | 91.7 | 85.5 | 84.4
RPMI 5 mM glucose + 10% dialyzed FBS, 0.00702 µM | 101 | 90.9 | 98.1
RPMI 5 mM glucose + 10% dialyzed FBS, 0.0211 µM | 95.3 | 90.3 | 94.8
RPMI 5 mM glucose + 10% dialyzed FBS, 0.0632 µM | 107 | 95.9 | 80
RPMI 5 mM glucose + 10% dialyzed FBS, 0.19 µM | 109 | 86.2 | 102
RPMI 5 mM glucose + 10% dialyzed FBS, 0.569 µM | 105 | 98.2 | 86.8
RPMI 5 mM glucose + 10% dialyzed FBS, 1.71 µM | 82.5 | 96.2 | 102
RPMI 5 mM glucose + 10% dialyzed FBS, 5.12 µM | 86.6 | 90.4 | 99.1
RPMI 5 mM glucose + 10% dialyzed FBS, 15.4 µM | 79.4 | 74 | 72.3
RPMI 5 mM glucose + 10% dialyzed FBS, 46.1 µM | 57 | 49.4 | 55

AUC of viability dose-response curve
Settings | NOMO1 [6] | P12-Ichikawa [5] | SEM cells [4]
HPLM + 10% dialyzed FBS | 439 | 450 | 428
RPMI 5 mM glucose + 10% FBS | 422 | 430 | 426
RPMI 5 mM glucose + 10% dialyzed FBS | 436 | 413 | 424
